How the values were obtained:
Assay in all cases: Bliss excess, mean over the matrix (fraction); higher = more synergy
[1] = tested on: NCI-H2009 (Lung Adenocarcinoma)
Summary of the method: (§1)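 Bliss excess equals the observed combination effect minus the expected value EA + EB − EA·EB, where EA and EB are the effects of each agent alone. Combination Emax is the second-highest inhibition within the matrix. Inhibition was scaled from CellTiter-Glo 2.0 luminescence, with 0 set by vehicle wells and 1 by blank wells, after 72 hours of two-drug dosing of cells plated in 1536-well plates.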

[2] = tested on: HT-3 (Cervical Carcinoma)
Summary of the method: as §1

[3] = tested on: C2BBe1 (Colorectal Carcinoma)
Summary of the method: as §1

[4] = tested on: JJN-3 (Plasma Cell Myeloma)
Summary of the method: as §1

[5] = tested on: MRK-nu-1 (Breast Carcinoma)
Summary of the method: as §1

[6] = tested on: JURL-MK1 (Chronic Myelogenous Leukemia)
Summary of the method: as §1

[7] = tested on: GRANTA-519 (B-Cell Non-Hodgkin's Lymphoma)
Summary of the method: as §1

[8] = tested on: CAL-85-1 (Breast Carcinoma)
Summary of the method: as §1

[9] = tested on: BT-474 (Breast Carcinoma)
Summary of the method: as §1

SK-MEL-24 (Melanoma) = tested on: SK-MEL-24 (Melanoma)
Summary of the method: as §1

[10] = tested on: NCI-H1975 (Lung Adenocarcinoma)
Summary of the method: as §1

[11] = tested on: TOV-21G (Ovarian Carcinoma)
Summary of the method: as §1

A375 (Melanoma) = tested on: A375 (Melanoma)
Summary of the method: as §1

[12] = tested on: IGROV-1 (Ovarian Carcinoma)
Summary of the method: as §1

[13] = tested on: NCI-H1048 (Small Cell Lung Carcinoma)
Summary of the method: as §1

[14] = tested on: KNS-62 (Squamous Cell Lung Carcinoma)
Summary of the method: as §1

[15] = tested on: L-363 (Plasma Cell Myeloma)
Summary of the method: as §1

[16] = tested on: NCI-H1648 (Lung Adenocarcinoma)
Summary of the method: as §1

[17] = tested on: TK (B-Cell Non-Hodgkin's Lymphoma)
Summary of the method: as §1

Compound	Bliss excess [1]	Bliss excess [2]	Bliss excess [3]	Bliss excess [4]	Bliss excess [5]	Bliss excess [6]	Bliss excess [7]	Bliss excess [8]	Bliss excess [9]	Bliss excess (SK-MEL-24 (Melanoma))	Bliss excess [10]	Bliss excess [11]	Bliss excess (A375 (Melanoma))	Bliss excess [12]	Bliss excess [13]	Bliss excess [14]	Bliss excess [15]	Bliss excess [16]	Bliss excess [17]
CN(C)CCCOc1ccc(-c2ccc3ncc4c(c3c2)n(C2CCOCC2)c(=O)n4C)cn1 [AZD0156] + C=CCn1c(=O)c2cnc(Nc3ccc(N4CCN(C)CC4)cc3)nc2n1-c1cccc(C(C)(C)O)n1 [AZD1775] (first compound max 1 µM, partner max 1 µM)	-0.0695	-0.023	0.0003	-0.0271	-0.0082	0.0119	-0.0268	-0.0155	-0.0647	-0.0255	0.017	0.0044	-0.0275	-0.0826	-0.0815	-0.0373	0.0057	-0.0468	-0.0045
C=CCn1c(=O)c2cnc(Nc3ccc(N4CCN(C)CC4)cc3)nc2n1-c1cccc(C(C)(C)O)n1 [AZD1775] + O=C(c1cc(Cc2n[nH]c(=O)c3ccccc23)ccc1F)N1CCN(C(=O)C2CC2)CC1 [Olaparib] (first compound max 1 µM, partner max 10 µM)	0.0075	-0.0055	-0.0322	-0.0591	-0.0311	0.001	-0.0679	-0.055	-0.0611	-0.0194	-0.0248	-0.0126	-0.0161	-0.0797	-0.0389	-0.0293	-0.0153	-0.0216	-0.0318
Cc1c2c(nn1C)CSCc1cc(n(C)n1)CSc1cc(c3ccccc3c1)OCCCc1c(C(=O)O)n(C)c3c-2c(Cl)ccc13 [AZD5991] + Cc1cc2ncnn2cc1Nc1ncc2c(n1)n(C1CCOCC1)c(=O)n2C [AZD7648] (first compound max 1 µM, 7x7, partner max 10 µM)	-0.0188	-0.0173	-0.0449	0.0324	-0.0058	-0.0227	-0.0268	-0.055	-0.0305	-0.0134	-0.104	-0.0461	-0.0244	-0.103	-0.0227	0.0266	0.0345	-0.0218	-0.0046
CN(CCO)CC[C@H](CSc1ccccc1)Nc1ccc(S(=O)(=O)NC(=O)c2ccc(N3CCC([C@@H](O)c4ccccc4-c4ccc(Cl)cc4)CC3)cc2)cc1S(=O)(=O)C(F)(F)F [AZD4320] + CN(C)CCCOc1ccc(-c2ccc3ncc4c(c3c2)n(C2CCOCC2)c(=O)n4C)cn1 [AZD0156] (first compound max 1 µM, 7x7, partner max 1 µM)	-0.0424	-0.0251	-0.0443	0.0142	-0.0133	-0.0368	0.007	-0.0472	-0.057	-0.0838	-0.0414	-0.0262	-0.0357	-0.0848	0.0406	-0.0566	-0.0005	-0.0326	0.0083
Cc1c2c(nn1C)CSCc1cc(n(C)n1)CSc1cc(c3ccccc3c1)OCCCc1c(C(=O)O)n(C)c3c-2c(Cl)ccc13 [AZD5991] + Cn1cnc2c(F)c(Nc3ccc(Br)cc3Cl)c(C(=O)NOCCO)cc21 [Selumetinib] (first compound max 1 µM, 7x7, partner max 3 µM)	0.0176	0.0926	-0.0033	0.0114	0.0052	0.0259	-0.0162	-0.0162	-0.0205	0.0006	0.0208	0.0121	0.0086	0.0372	-0.0224	-0.0171	0.0099	0.0396	-0.009
CC1(C)CCC(CN2CCN(c3ccc(C(=O)NS(=O)(=O)c4ccc(NCC5CCOCC5)c([N+](=O)[O-])c4)c(Oc4cnc5[nH]ccc5c4)c3)CC2)=C(c2ccc(Cl)cc2)C1 [Venetoclax] + CN(C)CCCOc1ccc(-c2ccc3ncc4c(c3c2)n(C2CCOCC2)c(=O)n4C)cn1 [AZD0156] (first compound max 1 µM, 7x7, partner max 1 µM)	-0.0283	-0.0423	-0.0333	0.0008	0.0046	-0.0151	0.0334	-0.0476	-0.0072	-0.0426	-0.0611	-0.0322	-0.003	-0.0236	0.0016	-0.0183	0.0188	-0.0685	-0.0227
CC1(C)CCC(CN2CCN(c3ccc(C(=O)NS(=O)(=O)c4ccc(NCC5CCOCC5)c([N+](=O)[O-])c4)c(Oc4cnc5[nH]ccc5c4)c3)CC2)=C(c2ccc(Cl)cc2)C1 [Venetoclax] + COc1cc(Nc2ncc3c(n2)-c2ccc(Cl)cc2C(c2c(F)cccc2OC)=NC3)ccc1C(=O)O [Alisertib] (first compound max 1 µM, 7x7, partner max 10 µM)	0.0023	-0.0262	-0.0271	0.45	0.129	-0.0542	0.438	-0.007	-0.0136	-0.0132	-0.0453	-0.006	0.0294	-0.0588	0.0987	-0.0512	-0.0115	0.0579	0.223

— the supplement of paper PMC11061612
